# Assay results taken from US20250205264A1, “METHODS OF USING AVERMECTIN COMPOSITIONS FOR THE TREATMENT OF SPASTICITY AND DOSING REGIMENS” (priority 2022, published 2025).
# Assay: Excipient compatibility study at 40° C./75% RH (HPLC Assay/Related Substances)
# Format: physicochemical
# Details: for Chromatographic purity by HPLC (% area) / Total Impurities % (% adjusted area): 40° C./75% RH; for Total Impurities % (% adjusted area): excluding API impurities
# Protocol: An excipient compatibility study was initiated with selected excipients ranging from oils to surfactants based on equilibrium solubility results (Table 2). […] After solutions were prepared using a hand-held homogenizer (Model IKAT10 Ultra-Turrax), each excipient sample was aliquoted in amber vials, approximately 10% water was added in each excipient aliquot, and bench scale gel stripe OET-004037 was also made and added in a separate set of aliquot samples at approximately 1:1 w/w.
# All samples were stored at 40° C./75% relative humidity (RH) condition (Model: Lunaire environmental chamber) and tested by developmental reversed phase HPLC method for Assay/Related Substances at T=0, 2 weeks, and 1 month.
# [1] = in Fractionated coconut oil, 10% water, T = 2 weeks
# [2] = in Fractionated coconut oil, Control, T = 0
# [3] = in Fractionated coconut oil, Control, T = 2 weeks
# [4] = in Fractionated coconut oil, Gel Stripe (1:1 w/w), T = 2 weeks
# [5] = in Labrasol ALF, 10% water, T = 1 months
# [6] = in Labrasol ALF, 10% water, T = 2 weeks
# [7] = in Labrasol ALF, Control, T = 0
# [8] = in Labrasol ALF, Control, T = 1 months
# [9] = in Labrasol ALF, Control, T = 2 weeks
# [10] = in Labrasol ALF, Gel Stripe (1:1 w/w), T = 1 months
# [11] = in Labrasol ALF, Gel Stripe (1:1 w/w), T = 2 weeks
# [12] = in Maisine CC, 10% water, T = 1 months
# [13] = in Maisine CC, 10% water, T = 2 weeks
# [14] = in Maisine CC, Control, T = 1 months
# [15] = in Maisine CC, Control, T = 2 weeks
# [16] = in Maisine CC, Gel Stripe (1:1 w/w), T = 1 months
# [17] = in Maisine CC, Gel Stripe (1:1 w/w), T = 2 weeks
# [18] = in Masester E8120, 10% water, T = 1 months
# [19] = in Masester E8120, 10% water, T = 2 weeks
# [20] = in Masester E8120, Control, T = 0
# [21] = in Masester E8120, Control, T = 1 months
# [22] = in Masester E8120, Control, T = 2 weeks
# [23] = in Masester E8120, Gel Stripe (1:1 w/w), T = 1 months
# [24] = in Masester E8120, Gel Stripe (1:1 w/w), T = 2 weeks
# [25] = in Oleic acid, 10% water, T = 2 weeks
# [26] = in Oleic acid, Control, T = 2 weeks
# [27] = in Oleic acid, Gel Stripe (1:1 w/w), T = 2 weeks
substance,measurement,setting,value
ivermectin,chemical compatibility with the API,PEG 400 as co-solvent,poor chemical compatibility
same,chemical compatibility with the API,Tween 80,less stability over time
same,chemical compatibility with the API,"Vitamin E TPGS, compared with Tween 80 and Labrasol ALF",best chemical compatibility
same,Chromatographic purity by HPLC (% area),[1],97.83 % area
same,Total Impurities % (% adjusted area),[1],<LOQ
same,Chromatographic purity by HPLC (% area),[2],95.61 % area
same,Total Impurities % (% adjusted area),[2],<LOQ
same,Chromatographic purity by HPLC (% area),[3],97.94 % area
same,Total Impurities % (% adjusted area),[3],<LOQ
same,Chromatographic purity by HPLC (% area),[4],94.42 % area
same,Total Impurities % (% adjusted area),[4],3.28 % adjusted area
same,Chromatographic purity by HPLC (% area),[5],89.91 % area
same,Total Impurities % (% adjusted area),[5],8.76 % adjusted area
same,Chromatographic purity by HPLC (% area),[6],93.91 % area
same,Total Impurities % (% adjusted area),[6],3.46 % adjusted area
same,Chromatographic purity by HPLC (% area),[7],97.74 % area
same,Total Impurities % (% adjusted area),[7],<LOQ
same,Chromatographic purity by HPLC (% area),[8],81.35 % area
same,Total Impurities % (% adjusted area),[8],20.49 % adjusted area
same,Chromatographic purity by HPLC (% area),[9],89.16 % area
same,Total Impurities % (% adjusted area),[9],8.67 % adjusted area
same,Chromatographic purity by HPLC (% area),[10],96.49 % area
same,Total Impurities % (% adjusted area),[10],1.06 % adjusted area
same,Chromatographic purity by HPLC (% area),[11],97.11 % area
same,Total Impurities % (% adjusted area),[11],0.30 % adjusted area
same,Chromatographic purity by HPLC (% area),[12],96.83 % area
same,Total Impurities % (% adjusted area),[12],0.69 % adjusted area
same,Chromatographic purity by HPLC (% area),[13],95.90 % area
same,Total Impurities % (% adjusted area),[13],0.45 % adjusted area
same,Chromatographic purity by HPLC (% area),"in Maisine CC, Control, T = 0",97.13 % area
same,Total Impurities % (% adjusted area),"in Maisine CC, Control, T = 0",0.58 % adjusted area
same,Chromatographic purity by HPLC (% area),[14],96.82 % area
same,Total Impurities % (% adjusted area),[14],0.71 % adjusted area
same,Chromatographic purity by HPLC (% area),[15],96.00 % area
same,Total Impurities % (% adjusted area),[15],0.35 % adjusted area
same,Chromatographic purity by HPLC (% area),[16],96.94 % area
same,Total Impurities % (% adjusted area),[16],0.58 % adjusted area
same,Chromatographic purity by HPLC (% area),[17],96.15 % area
same,Total Impurities % (% adjusted area),[17],0.33 % adjusted area
same,Chromatographic purity by HPLC (% area),[18],91.68 % area
same,Total Impurities % (% adjusted area),[18],6.60 % adjusted area
same,Chromatographic purity by HPLC (% area),[19],95.11 % area
same,Total Impurities % (% adjusted area),[19],2.27 % adjusted area
same,Chromatographic purity by HPLC (% area),[20],97.58 % area
same,Total Impurities % (% adjusted area),[20],0.17 % adjusted area
same,Chromatographic purity by HPLC (% area),[21],97.06 % area
same,Total Impurities % (% adjusted area),[21],0.45 % adjusted area
same,Chromatographic purity by HPLC (% area),[22],96.81 % area
same,Total Impurities % (% adjusted area),[22],0.58 % adjusted area
same,Chromatographic purity by HPLC (% area),[23],97.31 % area
same,Total Impurities % (% adjusted area),[23],0.18 % adjusted area
same,Chromatographic purity by HPLC (% area),[24],97.35 % area
same,Total Impurities % (% adjusted area),[24],0.11 % adjusted area
same,Chromatographic purity by HPLC (% area),[25],86.02 % area
same,Total Impurities % (% adjusted area),[25],9.89 % adjusted area
same,Chromatographic purity by HPLC (% area),"in Oleic acid, Control, T = 0",99.60 % area
same,Total Impurities % (% adjusted area),"in Oleic acid, Control, T = 0",<LOQ
same,Chromatographic purity by HPLC (% area),[26],83.55 % area
same,Total Impurities % (% adjusted area),[26],17.27 % adjusted area
same,Chromatographic purity by HPLC (% area),[27],83.73 % area
same,Total Impurities % (% adjusted area),[27],11.82 % adjusted area
same,Chromatographic purity by HPLC (% area),"in PEG 400, 10% water, T = 2 weeks",94.35 % area
